Source: patent US4687840A, “Hypotensive active peptides” (Texas Tech University Health Sciences Center, priority 1986, dated 1987)

Tested on: rat tail artery helical strip
Settings: strips contracted with arginine vasopressin, dose of 100 mg/ml
Protocol: Male and female Sprague-Dawley rats were anesthetized with pentobarbital (50 mg/kg) before removal of the tail artery. Upon isolation the artery was placed in ice cold Krebs-Hensleit solution (KHS) which was oxygenated with 95% O2, 5% CO2. The vessels were cut helically and strips of approximately 1.5 cm were secured in a Sawyer-Bartleston chamber containing KHS. The development of force of the helical strips was measured with a Grass FT.03 force displacement transducer and recorded on a Grass Model 79D polygraph. Isolated tail artery helical strips were equilibrated for one hour prior to addition of any peptide. In all cases, the strips were first contracted by adding arginine vasopressin (AVP), to the bath. The peptide being studied was then added to the bath and the degree of relaxation was determined.

## N=C(N)NCCC[C@@H](N)C(=O)O [D Arg, D-arginine]
  Tension change: 0 gm
